Assay results: BindingDB's records for PubMed 34029774 (Dpsr University, 2021)

Tests used:
[1] = target: Prostaglandin G/H synthase 2 (Ovis aries); assay: Inhibition of ovine COX-2 by colorimetric inhibitor screening assay
[2] = target: Prostaglandin G/H synthase 2 (Ovis aries); assay: Inhibition of ovine COX-2 using arachidonic acid as substrate measured after 2 mins by colorimetric enzyme immune assay
[3] = target: Prostaglandin G/H synthase 2 (Homo sapiens) (UniProt P35354); assay: Binding affinity to human recombinant COX-2 assessed as inhibition constant preincubated for 5 mins followed by arachidonic acid addition measured every 30 sec for 10 mins by fluorescence based assay
[4] = target: Prostaglandin G/H synthase 2 (Ovis aries); assay: Inhibition of ovine COX-2 colorimetric enzyme immunoassay

Chain of Prostaglandin G/H synthase 2 (Homo sapiens) (P35354 whole entry, looked up): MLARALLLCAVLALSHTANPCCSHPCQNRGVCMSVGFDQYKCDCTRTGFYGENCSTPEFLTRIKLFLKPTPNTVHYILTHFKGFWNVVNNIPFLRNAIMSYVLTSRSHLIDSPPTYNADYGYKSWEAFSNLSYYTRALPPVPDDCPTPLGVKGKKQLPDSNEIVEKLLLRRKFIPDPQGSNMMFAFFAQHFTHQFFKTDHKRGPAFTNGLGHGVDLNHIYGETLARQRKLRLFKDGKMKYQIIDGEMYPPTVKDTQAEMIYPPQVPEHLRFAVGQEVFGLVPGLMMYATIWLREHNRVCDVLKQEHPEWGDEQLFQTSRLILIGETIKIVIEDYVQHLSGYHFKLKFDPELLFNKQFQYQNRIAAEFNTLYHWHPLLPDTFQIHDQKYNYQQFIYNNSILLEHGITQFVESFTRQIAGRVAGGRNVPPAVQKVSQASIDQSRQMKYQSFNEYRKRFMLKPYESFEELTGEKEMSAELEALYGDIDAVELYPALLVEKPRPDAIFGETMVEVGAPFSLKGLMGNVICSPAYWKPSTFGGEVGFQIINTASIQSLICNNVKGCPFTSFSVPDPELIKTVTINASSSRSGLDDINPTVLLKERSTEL

Row | IC50 [2] [nM] | IC50 [4] [nM] | Structure (SMILES) | further results
1 | – | – | CC1=C(CC(=O)Sc2ccccc2)c2cc(F)ccc2/C1=C\c1ccc([S+](C)[O-])cc1 (stereo unspecified) | IC50 [1]: 1200 nM
2 | 110 | – | C/C(=N/Nc1ccc(C(=O)O)cc1)c1cccc(N2C(=O)c3ccccc3C2=O)c1 | –
3 | – | – | C=C(/C=C\C)/C(CSc1nnc(-c2cc(-c3ccc(OC)cc3)nc3ccccc23)n1-c1ccccc1)=N\O | Ki [3]: 94600 nM
4 | – | 6.4 | COc1ccc2cc(C(C)C(=O)O/N=C(\N)c3ccc(OC)c(OC)c3)ccc2c1 (stereo unspecified) | –
5 | 170 | – | COc1ccc(/C=C/C(=O)c2cccc(N3C(=O)c4ccccc4C3=O)c2)cc1OC | –
6 | – | 7.2 | COc1ccc2cc(C(C)C(=O)O/N=C(\N)c3ccc(Cl)cc3)ccc2c1 (stereo unspecified) | –
